For data set [1] the following is noted: for Lagtime / Flux: iontophoresis (ITP), donor pH 5.5, 50 mM HEPES; for Flux: steady state when current is present, 0.5 mA/sq.cm; for Flux of nicotine, iontophoresis of salt versus passive permeation of nicotine base / Lagtime during iontophoresis versus passive permeation of nicotine base: iontophoresis at pH 5.5 versus passive base pH 8, FIG. 8; for Flux of nicotine after termination of current: current terminated at 4 hrs, 50 mM HEPES, FIG. 6; for Iontophoretic flux of nicotine versus passive delivery of nicotine base: 500 mM citrate buffer with 50 mM NaCl, current terminated after 4 hours, FIG. 3. The procedure: The following methodology was employed in the examples described herein: Dermatomed human skin stored at −80° C. was thawed just prior to use. Each permeation experiment consisted of four replicates. The skin for each replicate was obtained from a different donor so that the variation was randomized. Skin was mounted on Valia-Chien (horizontal) diffusion cells for these in vitro permeation studies, with stratum corneum side facing the donor side. The receptor compartment was filled with pH 7.4 phosphate buffer (50 mM). […] Prior to use, both donor and receptor solutions were degassed by helium sparging. The temperature of the water bath was set to 32° C. Both donor and receptor compartments were continuously stirred. For iontophoresis, silver wire was used as the anode in the donor compartment and silver/silver chloride as cathode in the receptor compartment. A current of 0.5 mA/sq.cm was applied for 4 hours. Samples taken periodically from the receptor compartment were analyzed by HPLC assay. An Xterra RP18 column was used and the detection wavelength was 261 nm. The mobile phase was 85:15 buffer:acetonitrile, pumped at 1 mL/min and retention time was about 3 minutes.
Iontophoretic current was terminated after 4 hours.
Iontophoretic delivery of nicotinium dihydrochloride salt was also studied in 50 mM HEPES buffer, adjusted to pH 5.5 with NaOH.
The flux is calculated at steady state when current is present for the iontophoresis experiments.

Data set [2] can be described thus: Conductivity of donor solution. Format: physicochemical.
Where [3] appears, read: donor solution for iontophoresis, donor pH 5.5, 50 mM HEPES.

Here are results for 8 molecules from patent publication US20090036821A1 (priority 2005, published 2009).

Structures can show the parent of a compound that is named as a salt. Where two headings read alike, the source gives them in different places.

For `CN1CCCC1c1cccnc1` (centres unmarked) [Base, nicotine], the “Passive transport of nicotine, pH 8 versus pH 5.5” value (non-ionized form at pH 8 compared to monocationic form at pH 5.5) is “higher at pH 8”. For the setting “passive permeation, donor pH 8”, this molecule returned a Lagtime of 87 min. Also, under “passive permeation, donor pH 8, 1% nicotine, human skin”, the Flux is 0.1053 mg/cm^2-hr. Also, the “Nicotine permeation, iontophoresis versus passive delivery” value in data set [1] (both conditions evaluated (pH 5.5 and pH 8 buffers), FIGS. 1 and 2) is given as “Iontophoresis enhanced nicotine permeation compared to passive nicotine delivery”. The same molecule gave a Conductivity in data set [2] (donor solution for passive permeation, donor pH 8) of 4.73 mS/cm.
`CN1CCCC1c1cccnc1.O=C(O)CC(O)(CC(=O)O)C(=O)O` [Citrate, nicotine citrate]: in data set [1], the Lagtime is given as 9 min; the Flux turned out to be 0.332 mg/cm^2-hr; the “Flux of nicotine, iontophoresis of salt versus passive permeation of nicotine base” value is reported as “increased”; the “Lagtime during iontophoresis versus passive permeation of nicotine base” value is listed as “reduced”. Further, the Conductivity in data set [2] (setting [3]) worked out at 13.3 mS/cm.
As for `CN1CCC[C@H]1c1cccnc1` [HCl, nicotinium dihydrochloride], in data set [1], the “Flux of nicotine after termination of current” value was “decreased sharply”, the Lagtime was found to be 22 min and the Flux is 0.2236 mg/cm^2-hr. Further, the Conductivity in data set [2] (setting [3]) is 15.4 mS/cm. Moreover, the “Conductivity of donor solution” value in data set [2] (in 50 mM HEPES buffer, pH 5.5) was 15400 μmhos/cm.
As to `CN1CCCC1c1cccnc1.O=C(O)/C=C\C(=O)O` (centres unmarked) [Maleate, nicotine maleate], in data set [1], the Lagtime amounted to 4 min; the Flux came to 0.2867 mg/cm^2-hr; the “Flux of nicotine, iontophoresis of salt versus passive permeation of nicotine base” value is “increased”; the “Lagtime during iontophoresis versus passive permeation of nicotine base” value is given as “reduced”. For the same molecule, the Conductivity in data set [2] (setting [3]) was determined as 9.31 mS/cm.
As to nicotine hemisulfate, the “Iontophoretic flux of nicotine versus passive delivery of nicotine base” value in data set [1] was “less than the flux from the passive delivery of nicotine base at pH 8”.
Regarding `CN1CCCC1c1cccnc1.O=S(=O)(O)O.O=S(=O)(O)O` (centres unmarked) [SO4], in data set [1], the Lagtime was 46 min and the Flux was found to be 0.2554 mg/cm^2-hr. This molecule also returned a Conductivity in data set [2] (setting [3]) of 20 mS/cm.
Turning to `CN1CCCC1c1cccnc1.O=C(O)C(O)C(O)C(=O)O` (centres unmarked) [Bitartrate, nicotine bitartrate], in data set [1], the “Iontophoretic flux of nicotine versus passive delivery of nicotine base” value is listed as “less than the flux from the passive delivery of nicotine base at pH 8”, the “Flux of nicotine after termination of current” value is recorded as “decreased sharply”, the Lagtime is given as 10 min and the Flux was determined as 0.2073 mg/cm^2-hr. Further, in data set [1] (iontophoresis, 50 mM HEPES buffer pH 5.5), the “Flux of nicotine, 50 mM HEPES buffer versus 500 mM citrate buffer” value is listed as “higher than the nicotine flux from a 500 mM citrate buffer”. Moreover, the Conductivity in data set [2] (setting [3]) is 16.3 mS/cm. Also, the “Conductivity of donor solution” value in data set [2] (in 50 mM HEPES buffer, pH 5.5) is recorded as 16300 μmhos/cm. For the same molecule, the “Conductivity of donor solution” value in data set [2] (in 500 mM citrate buffer) worked out at 66400 μmhos/cm.
In data set [1], `Br.Br.CN1CCCC1c1cccnc1` (centres unmarked) [HBr] registered a Lagtime of 63 min and a Flux of 0.2771 mg/cm^2-hr. For the same molecule, the Conductivity in data set [2] (setting [3]) was determined as 25.9 mS/cm.
